Source: EP0503044B1, “PEPTIDE COMPOUNDS OF LAEVOROTATORY AMINO ACIDS AND RING MOLECULES, AND THERAPEUTICAL APPLICATIONS THEREOF” (POLIFARMA S.p.A., priority 1990, dated 1992)
Square brackets hold non-standard residues; d marks the D form. Peptide text beside a SMILES is read from it. * marks the point of attachment. Trp(1-Me) = Cn1cc(C[C@H](N)C(=O)O)c2ccccc21; Hyp = O=C(O)[CH]1C[CH](O)CN1; Phg = N[CH](C(=O)O)c1ccccc1; pGlu = O=C1CC[CH](C(=O)O)N1; Pip = O=C(O)[C@@H]1CCCCN1; ΔPro = O=C(O)[CH]1C=CCN1; Cbz = O=C(OCc1ccccc1)*; Aze = O=C(O)[CH]1CCN1; Boc = CC(C)(C)OC(=O)*

What was measured:
[1] = Hot Plate test (analgesic activity); type: in vivo
Excerpt: (§1) In the following examples will first of all be given the data necessary for synthesis of the compounds according to the present invention. There will then be given data regarding their pharmacological activity, using methods widely known to be valid. In particular, for the pressure tests, spontaneously hyper-tensive rats were used (SHR from the company Charles River), operated in such a way as to enable pressure to be read even when the animals were awake and free to move. In order to evaluate the analgesic activity, the Hot Plate and Writhing Tests were used. For the anti-inflammatory effect the test of carraginine edema was used. Finally, for immuno-modulating activity the evaluation of the stimulation of growth of human lymphocites in culture was resorted to, after the addition of specific antigens. The results obtained for each synthesized compound are given at the end of each example.

[2] = system: spontaneously hyper-tensive rats (SHR from the company Charles River); test: Pressure test in awake spontaneously hypertensive rats (anti-hypertensive activity); type: in vivo
Excerpt: as §1, with “antigens.” for “antigens. The results obtained for each synthesized compound are given at the end of each example.”

carraginine edema = test: Carrageenin edema test (anti-inflammatory effect); type: in vivo; conditions: dose not stated
Excerpt: as §1, with “antigens.” for “antigens. The results obtained for each synthesized compound are given at the end of each example.”

[3] = system: human lymphocites in culture; test: Stimulation of growth of human lymphocytes in culture after addition of specific antigens (immuno-modulating activity); type: cell-based
Excerpt: as §1

[4] = Analgesic activity, test not given (Hot Plate and Writhing Tests used); type: in vivo; conditions: test and dose not stated
Excerpt: as §1, with “antigens.” for “antigens. The results obtained for each synthesized compound are given at the end of each example.”

[5] = Writhing test (analgesic activity); type: in vivo; conditions: dose not stated
Excerpt: as §1

Molecule	anti-inflammatory effect (carraginine edema)	immune response [3]	anti-hypertensive effect ([2]; dose not stated)	further results
COC(=O)[C@@H](NC(=O)[C@H](C)NC(=O)[C@@H]1CCCN1C(=O)OCc1ccccc1)c1ccccc1 [compound 5, Z-(L)-Pro(L)-Ala-(L)-PhgOMe] (Cbz-Pro-Ala-[Phg]-OMe)				analgesic effect using the Hot Plate test ([1]; dose not stated): moderate; anti-hypertensive effect ([2]; 8 mg/Kg i.p.): bland
COC(=O)[C@H](Cc1cn(C)c2ccccc12)NC(=O)[C@H](C)NC(=O)[C@@H]1CCCN1C(=O)OCc1ccccc1 [compound 7, Z-(L)-Pro-(L)-Ala-(1)-Me-(L)-TrpOMe] (Cbz-Pro-Ala-[Trp(1-Me)]-OMe)				anti-hypertensive effect ([2]; 2 mg/Kg i.v.): good; reduction in pressure ([2]; 2 mg/Kg i.v.): 10%
COC(=O)[C@H](Cc1c[nH]c2ccccc12)NC(=O)[C@H](CC(C)C)NC(=O)c1ccco1 [compound 8, 2-Fur-(L)-Leu-(L)-TrpOMe]	slight	strongly stimulated even with small doses of peptide		anti-hypertensive effect ([2]; 4 mg/Kg i.v.): slight
COC(=O)[C@H](Cc1c[nH]c2ccccc12)NC(=O)[C@H](CC(C)C)NC(=O)c1ccc[nH]1 [compound 9, 2-Pyrrolyl-(L)-Leu-(L)-TrpOMe]	bland reduction		slight	
COC(=O)C(Cc1c[nH]c2ccccc12)NC(=O)C(CC(C)C)NC(=O)C1CCCN1C.Cl (stereo not shown) [compound 10, N-Me-(L)-Pro-(L)-Leu-(L)-TrpOMe.HCl]		slightly increased		analgesic effect [4]: low; anti-hypertensive effect ([2]; 2 mg/Kg i.v.): excellent; reduction in pressure ([2]; 2 mg/Kg i.v.): 15-20%
COC(=O)C(Cc1c[nH]c2ccccc12)NC(=O)C(CC(C)C)NC(=O)C1C=CCN1C(=O)OC(C)(C)C (stereo not drawn) [compound 13, Boc-\/^3,4-(L)-Pro-(L)-Leu-(L)-TrpOMe] (Boc-[ΔPro]-Leu-Trp-OMe; configuration not given here)		slightly increases	slightly anti-hypertensive	
COC(=O)[C@H](Cc1c[nH]c2ccccc12)NC(=O)[C@H](CC(C)C)NC(=O)[C@@H]1CCCCN1C(=O)OCc1ccccc1 [compound 15, Z-(L)-Pip-(L)-Leu-(L)-TrpOMe] (Cbz-[Pip]-Leu-Trp-OMe)	consistent	slight increase		anti-hypertensive effect ([2]; 2 mg/Kg i.v.): good; reduction in pressure ([2]; 2 mg/Kg i.v.): up to 30%
COC(=O)C(Cc1c[nH]c2ccccc12)NC(=O)C(CC(C)C)NC(=O)C1CC(O)CN1C(=O)OCc1ccccc1 (stereo not drawn) [compound 16, Z-(L)-Hyp-(L)-Leu-(L)-TrpOMe] (Cbz-[Hyp]-Leu-Trp-OMe; configuration not given here)			bland	analgesic effect [4]: modest
COC(=O)C(Cc1c[nH]c2ccccc12)NC(=O)C(CC(C)C)NC(=O)C1CCN1C(=O)OCc1ccccc1 [compound 17, z-(S)-Aze-(L)-Leu-(L)-TrpOMe] (Cbz-[Aze]-Leu-Trp-OMe; configuration not given here)	bland		slight	
COC(=O)C(NC(=O)CNC(=O)C1CCC(=O)N1)c1ccccc1 (stereo not drawn) [compound 22, (L)-Pyr-Gly-(L)-PhgOMe] ([pGlu]-Gly-[Phg]-OMe; configuration not given here)	very good	increase		reduction of edema (carraginine edema): 70%; anti-hypertensive effect ([2]; 4 mg/Kg i.p.): excellent; pressure values reduced ([2]; 4 mg/Kg i.p.): 20%
(L)-Pyr-(L)-Leu-(S)-CytOMe [compound 25]			bland	analgesic effect [4]: weak
(L)-Pyr-Gly-(L)-CypOMe [compound 24]	moderate		bland	
(L)-Pyr-Gly-(L)-Pme [compound 23]		good		analgesic effect [4]: excellent; reduction of contorsions during the Writhing test [5]: 80%; anti-hypertensive effect ([2]; 8 mg/Kg i.p.): good
(S)-Tfc-(L)-Leu-(L)-TrpOMe [compound 18]		moderate	bland	
Boc-(L)-Mep-(L)-Leu-(L)-TrpOMe [compound 12]	reduction of the inflammatory response		bland	
Z-(L)-Pro-(L)-Ala-(L)-CypOMe [compound 11]	moderate		slight	
Z-(L)-Pro-(L)-Ala-(L)-OmtOMe [compound 4]		slightly increased		anti-hypertensive effect ([2]; 8 mg/Kg i.v.): bland
Z-(L)-Pro-(L)-Ala-(L)-Pme [compound 6]	rather weak	more consistent		analgesic effect [4]: good; reduction of contorsions during the Writhing test [5]: 70%; extension of time in the Hot Plate test ([1]; dose not stated): 25%; anti-hypertensive effect ([2]; 2 mg/Kg i.v.): good; pressure reduced ([2]; 2 mg/Kg i.v., after one hour): approximately 25%
Z-(L)-Pro-(L)-Ala-(S)-CytOEt [compound 1]				response of lymphocytes stimulated by phytohemoagglutinine (PHA) ([3]; PHA stimulation): increases; pain killing effect under the Hot Plate test ([1]; 4 mg/Kg i.p.): slight; anti-hypertensive effect ([2]; 4 mg/Kg i.p.): good; duration of the anti-hypertensive effect ([2]; 4 mg/Kg i.p.): maintained for a number of hours; pressure values reduced ([2]; 4 mg/Kg i.p.): 15-20%
Z-(L)-Pro-(L)-Ala-CytH [compound 3]				anti-hypertensive effect ([2]; 8 mg/Kg i.p.): bland
Z-(L)-Pro-(L)-Ala-TrpH [compound 2]		increased, but to a lesser extent than in the previous compound	comparable to that of compound 1	
Z-(L)-Pyr-(L)-Leu-(L)-TrpOMe [compound 19]	fair		slight	
Z-(L)-Pyr-(L)-Leu-(S)-CypOMe [compound 21]		good	slight	
Z-(L)-Pyr-(L)-Leu-(S)-CytOMe [compound 20]	fair		bland	
Z-(S)-Dhi-(L)-Leu-(L)-TrpOMe [compound 14]			bland reduction	analgesic effect [4]: moderate
